Earlier results in US20110033536A1, “24-HOUR SUSTAINED-RELEASE METOCLOPRAMIDE” (POSIVISIONARY SOLUTIONS LLP, priority 2008, published 2011).

Plasma concentrations related to extrapyramidal effects (akathisia) (relationship stated as determined, no own test): above 120 ng/ml
SMILES: CCN(CC)CCNC(=O)c1cc(Cl)c(N)cc1OC [metoclopramide]
Plasma concentrations at which undesirable side effects (akathisia) are present (literature (Bateman 1979; Parlak 2005)): above 100 nanograms per milliliter
